Experiments:
Format in all cases: in vivo
[1] = system: upland rice (Oryza sp., var.Tebonnet, RICE); assay: Post-emerge greenhouse test, crop damage rating; conditions: 14 days after application, scale 0-100
Outline: (§1)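 Compounds in acetone with 0.25% v/v non-ionic surfactant were track-sprayed at 187 l/ha over plants at the 2-3 leaf stage, at 63 to 1000 g ai/ha. Pots were bottom-watered. Injury was scored visually 14 days later on a 0-100 scale, where 0 is no damage and 100 is complete plant death.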

[2] = system: field corn (Zea mays L., var. Dekalb 535, CORN); assay: Post-emerge greenhouse test, crop damage rating; conditions: 14 days after application, scale 0-100
Outline: as §1

[3] = system: common ragweed (Ambrosia artemisiifolia L., AMBEL); assay: Post-emerge greenhouse herbicide test, phytotoxicity rating; conditions: 14 days after application, scale 0-100
Text: (§2) A standard greenhouse herbicide activity screening system was used to evaluate the herbicidal efficacy and crop safety of these test compounds. Six broadleaf weed species including redroot pigweed (Amaranthus retroflexus, AMARE), velvetleaf (Abutilon theophrasti, ABUTH), sicklepod (Cassia obtusifolia, CASOB), ivyleaf morningglory (Ipomoea hederacea, IPOHE), lambsquarters (Chenopodium album, CHEAL) and common ragweed (Ambrosia artemisiifolia L., AMBEL) were used as test species. Four grass weed species including green foxtail (Setaria viridis, SETVI), barnyardgrass (Echinochloa crusgalli, ECHCG), Johnsongrass (Sorghum halepense, SORHA), and large crabgrass (Digitaria sanguinalis, DIGSA) were also used. In addition, three crop species, field corn (Zea mays L., var. Dekalb 535, CORN), soybean (Glycine max L., var. Pella 86, SOY), and upland rice (Oryza sp., var.Tebonnet, RICE) were included.
All test compounds were dissolved in acetone and applied to the test units in a volume of 187 l/ha. […] Plants were arranged on a shelf so that the top of the canopy (post-emerge) or top of the soil surface (pre-emerge) was 40-45 cm below the nozzle. Pressurized air was used to force the test solution through the nozzle as it was mechanically advanced (via electrically driven chain drive) over the top of all test plants/pots. This application simulates a typical commercial field herbicide application.
(§3) In the post-emerge test, a commercial non-ionic surfactant was also included (0.25% v/v) to enhance wetting of the leaf surfaces Qf target plants at rates ranging from 63 g ai/ha to 1000 g ai/ha. For post-emerge tests, seeds were planted 8-21 days prior to the test to allow emergence and good foliage development prior to application of the test substances. At the time of the post-emerge application, plants of all species were usually at the 2-3 leaf stage of development. Post-emerge test units were always bottom-watered.
(§4) At 14 days after application of the test materials, phytotoxicity ratings were recorded. A rating scale of 0-100 was used as previously described in Research Methods in Weed Science, 2nd edition, B. Truelove, Ed., Southern Weed Science Society, Auburn University, Auburn, Ala., 1977. Briefly, “0” corresponds to no damage and “100” corresponds to complete death of all plants in the test unit. This scale was used both to determine efficacy against weed species and damage to crop species. Herbicide activity data for various compounds of this invention, which are shown by compound number in Tables 1-9, are shown in Tables 13 and 14.

[4] = system: soybean (Glycine max L., var. Pella 86, SOY); assay: Pre-emerge greenhouse test, crop damage rating; parameters: key to SOY crop damage rating: 0 = no damage, 100 = complete death of all plants; conditions: 14 days after application, rating scale 0-100
Outline: (§5)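 Seeds sown in sandy loam mix one day before track-sprayer application of compounds in acetone at 125–1000 g ai/ha (187 l/ha), then surface-watered to incorporate and bottom-watered. Visual rating 14 days after application on a 0–100 scale (0 = no damage, 100 = all plants dead).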

[5] = system: soybean (Glycine max L., var. Pella 86, SOY); assay: Post-emerge greenhouse test, crop damage rating; parameters: key to crop damage rating SOY: 0-100 scale: 0 = no damage, 100 = complete death of all plants; conditions: 14 days after application, scale 0-100
Outline: as §1

[6] = system: large crabgrass (Digitaria sanguinalis, DIGSA); assay: Pre-emerge greenhouse herbicide test, phytotoxicity rating; conditions: 14 days after application, rating scale 0-100
Text: as §2
(§6) All plants were grown in 10 cm square plastic pots which were filled with a sandy loam soil mix. For preemerge tests, seeds were planted one day prior to application of the test compounds. Immediately after application, test units of the pre-emerge applications were watered at the soil surface to incorporate the test materials. Subsequently, these test units were bottom-watered.
(§7) All test compounds were dissolved in acetone and applied to the test units in a volume of 187 l/ha. Test materials were applied at rates ranging from 125 g ai/ha to 1000 g ai/ha using a track sprayer equipped with a TJ8001E even flow flat fan spray nozzle. Plants were arranged on a shelf so that the top of the canopy (post-emerge) or top of the soil surface (pre-emerge) was 40-45 cm below the nozzle. Pressurized air was used to force the test solution through the nozzle as it was mechanically advanced (via electrically driven chain drive) over the top of all test plants/pots. This application simulates a typical commercial field herbicide application.
as §4

[7] = system: green foxtail (Setaria viridis, SETVI); assay: as above; conditions: 14 days after application, rating scale 0-100
Text: as §2, §6, §7, §4

[8] = system: lambsquarters (Chenopodium album, CHEAL); assay: as above; conditions: 14 days after application, rating scale 0-100
Text: as §2, §6, §7, §4

[9] = system: Johnsongrass (Sorghum halepense, SORHA); assay: as above; conditions: 14 days after application, rating scale 0-100
Text: as §2, §6, §7, §4

[10] = system: barnyardgrass (Echinochloa crusgalli, ECHCG); assay: as above; conditions: 14 days after application, rating scale 0-100
Text: as §2, §6, §7, §4

[11] = system: ivyleaf morningglory (Ipomoea hederacea, IPOHE); assay: as above; conditions: 14 days after application, rating scale 0-100
Text: as §2, §6, §7, §4

[12] = system: sicklepod (Cassia obtusifolia, CASOB); assay: as above; conditions: 14 days after application, rating scale 0-100
Text: as §2, §6, §7, §4

[13] = system: velvetleaf (Abutilon theophrasti, ABUTH); assay: as above; conditions: 14 days after application, rating scale 0-100
Text: as §2, §6, §7, §4

[14] = system: redroot pigweed (Amaranthus retroflexus, AMARE); assay: as above; conditions: 14 days after application, rating scale 0-100
Text: as §2, §6, §7, §4

[15] = system: large crabgrass (Digitaria sanguinalis, DIGSA); assay: Post-emerge greenhouse herbicide test, phytotoxicity rating; conditions: 14 days after application, scale 0-100
Text: as §2, §7, §3, §4

[16] = system: green foxtail (Setaria viridis, SETVI); assay: as above; conditions: 14 days after application, scale 0-100
Text: as §2, §7, §3, §4

[17] = system: lambsquarters (Chenopodium album, CHEAL); assay: as above; conditions: 14 days after application, scale 0-100
Text: as §2, §7, §3, §4

[18] = system: Johnsongrass (Sorghum halepense, SORHA); assay: as above; conditions: 14 days after application, scale 0-100
Text: as §2, §7, §3, §4

[19] = system: barnyardgrass (Echinochloa crusgalli, ECHCG); assay: as above; conditions: 14 days after application, scale 0-100
Text: as §2, §7, §3, §4

[20] = system: ivyleaf morningglory (Ipomoea hederacea, IPOHE); assay: as above; conditions: 14 days after application, scale 0-100
Text: as §2, §7, §3, §4

[21] = system: sicklepod (Cassia obtusifolia, CASOB); assay: as above; conditions: 14 days after application, scale 0-100
Text: as §2, §7, §3, §4

[22] = system: velvetleaf (Abutilon theophrasti, ABUTH); assay: as above; conditions: 14 days after application, scale 0-100
Text: as §2, §7, §3, §4

[23] = system: redroot pigweed (Amaranthus retroflexus, AMARE); assay: as above; conditions: 14 days after application, scale 0-100
Text: as §2, §7, §3, §4

[24] = system: upland rice (Oryza sp., var.Tebonnet, RICE); assay: Pre-emerge greenhouse test, crop damage rating; conditions: Rate 250 g al/ha, 14 days after application, rating scale 0-100
Outline: as §5

[25] = system: field corn (Zea mays L., var. Dekalb 535, CORN); assay: Pre-emerge greenhouse test, crop damage rating; conditions: 14 days after application, rating scale 0-100
Outline: as §5

With `CCOC(=O)C(C)Oc1ccc(Oc2cc(-n3c(=O)n4n(c3=S)CCCC4)c(F)cc2Cl)c([N+](=O)[O-])c1` (stereo not shown) [Compound 8-39] the “crop damage rating RICE” value ([1]; rate 63 g ai/ha) was 15, the “crop damage rating RICE” value ([1]; rate 230 g ai/ha) was 15 and the “crop damage rating CORN” value ([2]; rate 63 g ai/ha) was 15. The “crop damage rating CORN” value ([2]; rate 230 g ai/ha) was 10, the “phytotoxicity rating AMBEL” value ([3]; rate 63 g ai/ha) was 60 and the “phytotoxicity rating AMBEL” value ([3]; rate 230 g ai/ha) was 80. The “SOY crop damage rating” value ([4]; Rate 125 g al/ha) was 0, the “SOY crop damage rating” value ([4]; Rate 250 g al/ha) was 0 and the “crop damage rating SOY” value ([5]; rate 63 g ai/ha) was 60. For the same molecule, the “crop damage rating SOY” value ([5]; rate 230 g ai/ha) was 80, the DIGSA phytotoxicity rating ([6]; Rate 125 g al/ha) was 0 and the DIGSA phytotoxicity rating ([6]; Rate 250 g al/ha) was 0. The SETVI phytotoxicity rating ([7]; Rate 125 g al/ha) was 0, the SETVI phytotoxicity rating ([7]; Rate 250 g al/ha) was 40 and the CHEAL phytotoxicity rating ([8]; Rate 125 g al/ha) was 99. For the same molecule, the CHEAL phytotoxicity rating ([8]; Rate 250 g al/ha) was 100, the SORHA phytotoxicity rating ([9]; Rate 125 g al/ha) was 0 and the SORHA phytotoxicity rating ([9]; Rate 250 g al/ha) was 0. For the same molecule, the ECHCG phytotoxicity rating ([10]; Rate 125 g al/ha) was 0, the ECHCG phytotoxicity rating ([10]; Rate 250 g al/ha) was 0 and the IPOHE phytotoxicity rating ([11]; Rate 125 g al/ha) was 0. For the same molecule, the IPOHE phytotoxicity rating ([11]; Rate 250 g al/ha) was 0, the CASOB phytotoxicity rating ([12]; Rate 125 g al/ha) was 95 and the CASOB phytotoxicity rating ([12]; Rate 250 g al/ha) was 0. It also gave an ABUTH phytotoxicity rating ([13]; Rate 125 g al/ha) of 20, an ABUTH phytotoxicity rating ([13]; Rate 250 g al/ha) of 100 and an AMARE phytotoxicity rating ([14]; Rate 125 g al/ha) of 100. The AMARE phytotoxicity rating ([14]; Rate 250 g al/ha) was 100, the “phytotoxicity rating DIGSA” value ([15]; rate 63 g ai/ha) was 0 and the “phytotoxicity rating DIGSA” value ([15]; rate 230 g ai/ha) was 10. The “phytotoxicity rating SETVI” value ([16]; rate 63 g ai/ha) was 10, the “phytotoxicity rating SETVI” value ([16]; rate 230 g ai/ha) was 10 and the “phytotoxicity rating CHEAL” value ([17]; rate 63 g ai/ha) was 50. For the same molecule, the “phytotoxicity rating CHEAL” value ([17]; rate 230 g ai/ha) was 70, the “phytotoxicity rating SORHA” value ([18]; rate 63 g ai/ha) was 0 and the “phytotoxicity rating SORHA” value ([18]; rate 230 g ai/ha) was 10. For the same molecule, the “phytotoxicity rating ECHCG” value ([19]; rate 63 g ai/ha) was 0, the “phytotoxicity rating ECHCG” value ([19]; rate 230 g ai/ha) was 30 and the “phytotoxicity rating IPOHE” value ([20]; rate 63 g ai/ha) was 100. The “phytotoxicity rating IPOHE” value ([20]; rate 230 g ai/ha) was 90, the “phytotoxicity rating CASOB” value ([21]; rate 63 g ai/ha) was 100 and the “phytotoxicity rating CASOB” value ([21]; rate 230 g ai/ha) was 30. The “phytotoxicity rating ABUTH” value ([22]; rate 63 g ai/ha) was 100, the “phytotoxicity rating ABUTH” value ([22]; rate 230 g ai/ha) was 100 and the “phytotoxicity rating AMARE” value ([23]; rate 63 g ai/ha) was 70. For the same molecule, the “phytotoxicity rating AMARE” value ([23]; rate 230 g ai/ha) was 80, the “RICE crop damage rating” value [24] was 20 and the “CORN crop damage rating” value ([25]; Rate 125 g al/ha) was 0. For the same molecule, the “CORN crop damage rating” value ([25]; Rate 250 g al/ha) was 0.
